Key:
human SMURF1 promoter = assay: Human SMURF1 promoter-GFP reporter in HEK293 cells; format: cell-based; conditions: HEK293 stably transfected
Protocol: (§1) FIG. 13. (A) Screen for modulators of SMURF1 mRNA abundance in PASMCs. Human PASMCs from PAH patients were treated with agents that are associated with PAH, including cytokines, chemokines, growth factors, and small molecule pathway probes, and were cultured under hypoxic conditions to identify modulators of SMURF1 mRNA (n=2 donors). […] The human SMURF1 promoter was stably transfected into HEK293 cells upstream of a GFP sequence.

SMURF1 mRNA = assay: Screen for modulators of SMURF1 mRNA abundance in PASMCs; format: cell-based, human; conditions: PASMCs from PAH patients; normalized Ct values
Protocol: as §1

E1, E2, CAT = assay: Split-CAT system counter-checks (E1, E2, CAT activity, E. coli toxicity); format: cell-based
Protocol: (§2) Assays were performed as previously described.84,85 The selection plasmids were co-transformed into Mach1™-T1R E. coli cells. All growth assays were performed in LB agar or liquid at 37° C. Optimization of chloramphenicol (CAM) concentrations were performed according to the largest growth shift between the hyperactive mutant to the catalytic dead mutant in SMURF1 (ΔC2-K381R; ΔC2-C725A) or in E6AP (HECTd-K466R; HECTd-C820A) at each assay as previously described. The disclosers constructed a split-CAT based E3-dependent Rpn10 full length ubiquitylation cascade to monitor the effect of inhibitor and point mutations in ubiquitin E3 ligases. Specifically, yeast Rpn10 was tethered to N-CAT as a general ubiquitylation target and co-expressed with C-CAT-Ub, E1, E2 and human SMURF1235-757: wild-type DC2, K381R or catalytic dead C725A. Similarly, E6AP453-852: wild-type HECTd, K466R or catalytic dead HECTd-C820A.
To inspect ubiquitylation of BMPR2, the disclosures substituted Rpn10 with BMPR2174-558 cytosolic portion fused to the N-CAT. […] Inhibition assays were performed in liquid LB using 96 well-plate with Tecan Sunrise reader high intensity shaking for 9.5 mins rest for 10, 5 mins shake and read at 595 nm. Growth was monitored between 12-36 Hrs as indicated.

E6AP = target: T1, E6AP (Homo sapiens, UniProt Q05086, K489R); assay: E. coli split-CAT E6AP reporter system; format: cell-based
T1 construct: Similarly, E6AP453-852: wild-type HECTd, K466R or catalytic dead HECTd-C820A; expressed in transfected cells; host or cells: Mach1-T1R E. coli
T1 sequence (Q05086 453-852 isoform Q05086-2 K466R): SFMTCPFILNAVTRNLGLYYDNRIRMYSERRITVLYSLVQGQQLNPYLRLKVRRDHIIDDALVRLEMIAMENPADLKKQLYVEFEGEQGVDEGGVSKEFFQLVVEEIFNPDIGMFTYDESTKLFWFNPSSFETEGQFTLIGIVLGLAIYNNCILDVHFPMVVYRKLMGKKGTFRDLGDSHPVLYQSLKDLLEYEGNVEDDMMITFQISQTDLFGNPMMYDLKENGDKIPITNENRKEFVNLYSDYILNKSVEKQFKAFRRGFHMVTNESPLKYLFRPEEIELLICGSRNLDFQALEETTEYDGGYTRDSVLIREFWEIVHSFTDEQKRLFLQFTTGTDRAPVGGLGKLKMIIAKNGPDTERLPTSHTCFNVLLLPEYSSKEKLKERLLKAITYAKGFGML
Protocol: as §2
To inspect ubiquitylation of BMPR2, the disclosures substituted Rpn10 with BMPR2174-558 cytosolic portion fused to the N-CAT. […] Inhibition assays were performed in liquid LB using 96 well-plate with Tecan Sunrise reader high intensity shaking for 9.5 mins rest for 10, 5 mins shake and read at 595 nm. Growth was monitored between 12-36 Hrs as indicated. […]

| Compound | GFP signal (SMURF1 promoter) (human SMURF1 promoter) | SMURF1 expression (mRNA) (SMURF1 mRNA) | Effect on E1, E2, or CAT activities (E1, E2, CAT) | Inhibition of E6AP S739L, R740G double mutant (E6AP; escape mutant, FIG. 6K) | E6AP activity (E6AP; hyperactive HECTd-K466R E6AP, FIG. 6I) |
| --- | --- | --- | --- | --- | --- |
| TGFβ1: transforming growth factor beta 1, agent in SMURF1 modulator screen | increased GFP signal | increase SMURF1 expression |  |  |  |
| CO/C1=C\C(C)=C\[C@@H](C)[C@@H](O)[C@@H](C)C/C(C)=C/C=C/[C@H](OC)[C@@H]([C@@H](C)[C@@H](O)[C@H](C)[C@@]2(O)C[C@@H](O)[C@H](C)[C@@H](C(C)C)O2)OC1=O [bafilomycin A1, reference compound] | increased GFP signal |  |  |  |  |
| Cc1ccc(-n2ccnc2N2CCN(C(=O)C34CC5CC(CC(C5)C3)C4)CC2)cc1 [i-27, 1-[1-(4-methylphenyl)-imidazol-2-yl]-4-[adamantane-1-carbonyl]piperazine] |  |  | without affecting E1, E2, or CAT activities | inhibition was reduced twofold | reduced E6AP activity in a dose-dependent manner |

— patent US20250266123A1, “IN SILICO METHOD OF IDENTIFYING ALLOSTERIC HECT E3-LIGASE INHIBITORS” (Ramot at Tel-Aviv University Ltd., priority 2024, published 2025)
